Measurements from US4727076A, “Tetrahydroquinolinylalkyl amino pyridones and ring homologues thereof, useful as histamine-H1 -receptor antagonists” (Smith Kline & French Laboratories Ltd., priority 1986, dated 1988).

System: histamine H1-receptor
Assay: inhibition of histamine induced bronchoconstriction in vivo
Set-up: species or system guinea pig
Settings: anaesthetised guinea pigs, intravenous injection, histamine dose-response curve 5 minutes later
Experimental: Guinea pigs of either sex are anaesthetised by intraperitoneal injection of sodium pentobarbitone, 90 mg/kg. The trachea is cannulated. The animal is respired artificially with a fixed volume of air just adequate to inflate the lungs. The pressure needed to inflate the lungs is monitored from the respiratory system using a low pressure transducer. Intravenous injection of histamine causes dose-dependent increases in the pressure to inflate the lungs reflecting the bronchoconstrictor action of histamine. Responses to histamine can be antagonised using histamine H1 -receptor antagonists.
Dose-response curves to histamine are established at 20, 40, 80, 160 and 320 nmols/kg. Antagonists are then administered by intravenous injection and 5 minutes later a new histamine dose-response curve is established increasing the doses of histamine as necessary. The effect of the antagonist can be quantified by the displacement, to the right, of the histamine dose-response curve, expressed as a dose-ratio. A series of doses of antagonists may be given to each animal allowing calculation of dose-ratios for each dose of antagonist. For the compounds of Examples 1, 2 and 4, the doses (μmol/kg) required to give a dose ratio of 11 ((DR-1)=10) are 0.022, 0.06 and 0.0048 respectively.

SMILES | dose required to give a dose ratio of 11 ((DR-1)=10)
O=c1nc(NCCCC2CCCc3cccnc32)[nH]cc1Cc1cc[n+]([O-])cc1 (stereo not drawn) [Example 1, 2-[3-(5,6,7,8-Tetrahydroquinol-8-yl)propylamino]-5-[1-oxopyrid-4-ylmethyl]-4(1H)-pyrimidone] | 0.022 µmol/kg
Cc1ccc(Cc2c[nH]c(NCCCC3CCCc4cccnc43)nc2=O)cn1 (stereo not drawn) [Example 2, 2-[3-(5,6,7,8-Tetrahydroquinol-8-yl)propylamino]-5-(6-methylpyrid-3-ylmethyl)-4(1H)-pyrimidone] | 0.06 µmol/kg
O=c1nc(NCCCC2CCCc3cccnc32)[nH]cc1Cc1ccc(CO)nc1 (stereo not drawn) [Example 4, 2-[3-(5,6,7,8-Tetrahydroquinol-8-yl)propylamino]-5-(6-hydroxymethylpyrid-3-ylmethyl)-4(1H)-pyrimidone] | 0.0048 µmol/kg
